We go through 4 compounds from article PMC5100903, “Tissue Kallikrein Inhibitors Based on the Sunflower Trypsin Inhibitor Scaffold – A Potential Therapeutic Intervention for Skin Diseases” (PLoS ONE, 2016).

Each structure is given as a SMILES string. Where two headings read alike, the source gives them in different places. Positions of bridges follow the written chain, without caps; N, C: chain ends. Residues, ends and D or L forms follow the SMILES beside them.

Assay [1] has as its target T1, Human Neutrophil Elastase (Homo sapiens, UniProt P08246).
T1 construct: human neutrophil elastase (purified from human plasma); purchased Abcam; host or cells: human plasma (so in the source)
T1 sequence (P08246 30-247 limits assumed): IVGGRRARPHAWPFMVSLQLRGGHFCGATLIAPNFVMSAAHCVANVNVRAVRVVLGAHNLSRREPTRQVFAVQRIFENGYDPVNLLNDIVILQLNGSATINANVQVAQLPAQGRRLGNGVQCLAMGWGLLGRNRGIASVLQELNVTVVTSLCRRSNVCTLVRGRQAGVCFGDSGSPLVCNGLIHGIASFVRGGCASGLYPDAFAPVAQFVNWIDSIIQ
As to the kind of experiment: Human neutrophil elastase inhibition, MeOSuc-AAPV-AMC assay. It counts as biochemical. The conditions noted are these: read-out: % inhibition of Human Neutrophil Elastase. Here is the method:
(§1) All assays were performed on 96-well microplates and the change in relative fluorescence unit (RFU) was measured by fluorescence spectrometer (BMG FLUOstar OPTIMA). The excitation/emission wavelength was 360/460 nm for the substrate Boc-VPR-AMC (Bachem AG, Hauptstrasse, Switzerland) and MeOSuc-AAPV-AMC (Bachem AG, Hauptstrasse, Switzerland) and 485/520 nm for BODIPY_FL casein (Invitrogen, Carlsbad, US). Stock solution of Boc-VPR-AMC was prepared by dissolving the solid in dimethyl sulfoxide to 100 mM and 10 mM for MeOSuc-AAPV. For BODIPY_FL casein, it was reconstituted to 1 mg/mL in 1xPBS. […] The % of inhibition was calculated by the following equation: % of Inhibition=(1−(Sample RFU − Min RFU)/(Max RFU − Min RFU)) X100
(§2) Each inhibition curves were done in triplicates with a minimum of five concentration points fitted. Fitting of each curve was done using SigmaPlot with the Four Parameter Logistic Function and the IC50 calculated. […] All tested compounds were reconstituted to stock solution in water.
(§3) The diluent for all the tested compounds, protein and substrate (except KLK7, which was done with 10 mM Tris pH 7.8) was 1xPBS pH 8.0–8.9. The serially diluted ligands were mixed with diluted bovine trypsin (Sigma, Dorset, U.K.) or activated KLK14, or KLK5, or activated KLK8 or matriptase (catalytic domain only, >90% purity by SDS-PAGE, endotoxin <0.1 ng/μg, R&D, Minneapolis, U.S.) or activated KLK7 or human neutrophil elastase (purified from human plasma, >95% purity by SDS-PAGE, Abcam, Cambridge, U.K.) or porcine pancreatic elastase 1 (Sigma, Dorset, U.K.) or human plasma kallikrein or human plasma plasmin (purified from human plasma, ≥95% purity by SDS-PAGE, BioVision, Milpitas, U.S.). 20μL of the ligand-protein mixture was pipetted to a well of a 96-well microplate in triplicates. The reaction was started by addition of 90–100 μL of the diluted substrate solution (contained 0.05% v/v Brij35) and the plate incubated at 25°C but 37°C for KLK7. RFU reading for each well was taken 6 minutes (trypsin) or 15 minutes (KLK14, KLK5, KLK8, matriptase, human neutrophil elastase, porcine pancreatic elastase 1, plasma kallikrein and plasmin) or 20 hours (KLK7) after substrate addition.

The next assay deals with T2, KLK5 (Homo sapiens, UniProt Q9Y337).
T2 construct: purchased Novoprotein
T2 sequence (Q9Y337 23-293): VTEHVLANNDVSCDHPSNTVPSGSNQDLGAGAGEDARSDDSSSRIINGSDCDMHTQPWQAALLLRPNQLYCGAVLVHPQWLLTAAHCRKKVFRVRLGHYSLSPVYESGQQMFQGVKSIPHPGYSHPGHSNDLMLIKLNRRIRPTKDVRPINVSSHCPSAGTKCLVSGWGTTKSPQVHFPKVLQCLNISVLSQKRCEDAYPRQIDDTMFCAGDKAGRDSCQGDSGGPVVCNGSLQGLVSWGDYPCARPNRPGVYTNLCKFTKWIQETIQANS
As to the kind of experiment: biochemical. It counts as binding. The conditions noted are these: for Stoichiometry (N) / ΔH / ΔS / ΔG / Ka: ITC; for ΔG: 25°C; for Ka: 25°C (Table S2, unit not given). How it is done:
ITC experiments were performed on a MicroCal iTC200 calorimeter (GE Healthcare, Uppsala, Sweden) at 298.15 K with a stirring speed of 750 revolutions per minute. Concentrated (450 μM) ligand solutions were injected into protein (KLK5) solution (20 μM, 280 μL sample volume) in the sample cell. Injection volumes were 2 μL for I10H and Analogue 1 and 1 μL for Analogue 2 and 6 with a spacing of 120 seconds between each injection. Concentrations of ligands were determined by dried weight and they were reconstituted to 10 mM stock in H2O. Concentration of KLK5 was determined by UV280 calculated with an extinction coefficient of 38680 and molecular weight of 32KDa (including weight of glycosylation). The protein solution were buffer exchanged using spin column to 1xPBS (137 mM NaCl, 2.7 mM KCl, 4.3 mM Na2HPO4, 1.47 mM KH2PO4 pH 8.0) or 20 mM MES buffer (with 150 mM NaCl, pH 5.5). Ligand stocks were diluted in those buffers (4.5 μL + 95.5 μL buffer), and then equal v/v % of H2O was added to the protein solution after buffer exchange to ensure matching buffer contents. Heat of dilution was undetectable in control experiments. Data were analyzed using OriginLab version 7.0.

The target of another assay is T3, KLK8 (Homo sapiens, UniProt O60259).
T3 construct: purchased R&D
T3 sequence (O60259 33-260): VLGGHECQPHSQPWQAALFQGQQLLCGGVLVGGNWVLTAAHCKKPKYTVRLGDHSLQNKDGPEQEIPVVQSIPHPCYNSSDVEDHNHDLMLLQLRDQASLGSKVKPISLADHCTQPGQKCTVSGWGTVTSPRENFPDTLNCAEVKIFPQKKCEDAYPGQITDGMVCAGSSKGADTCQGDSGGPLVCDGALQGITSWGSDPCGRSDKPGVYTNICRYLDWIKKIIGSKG
Kind of assay: biochemical. How it is done:
as §1, §2
Recombinant KLK7, KLK8 and KLK14 (>95% purity by SDS-PAGE, endotoxin <0.1 ng/μg, R&D, Minneapolis, U.S.) stocks were diluted with 1xPBS to a concentration of 120 nM. KLK7 and KLK14 were activated by addition of 1 mM f/c CaCl2 (Sigma, Dorset, U.K.), 0.05% v/v Brij35 (Sigma, Dorset, U.K.), 20 nM f/c thermolysin (Sigma, Dorset, U.K.) and incubated at 37°C for 1 hour. The reaction was stopped by addition of ethylenediaminetetraacetic acid (EDTA, 50 mM f/c). KLK8 was activated by addition of 11 nM f/c lysyl endopeptidase (Santa Cruz Biotechnology, Dallas, U.S.) and incubation at 37°C for 0.5 hour. […] The RFU value reached by the thermolysin control was used as the minimum RFU for calculating the % of inhibition for KLK7.
as §3

The mark [2] stands for this setting: at 10 μM, enzyme 10 nM, MeOSuc-AAPV-AMC 41 μM.
The mark [3] stands for this setting: enzyme 9 nM, Boc-VPR-AMC 42 μM, 25°C, 15 minutes.

For `CC[C@H](C)[C@@H]1NC(=O)[C@H](CO)NC(=O)[C@H](CCCCN)NC(=O)[C@H]([C@@H](C)O)NC(=O)[C@@H]2CSSC[C@H](NC(=O)[C@H](Cc3c[nH]cn3)NC(=O)[C@@H]3CCCN3C(=O)[C@@H]3CCCN3C1=O)C(=O)N[C@@H](Cc1c[nH]c3ccccc13)C(=O)N1CCC[C@H]1C(=O)N[C@@H](CC(=O)O)C(=O)NCC(=O)N[C@@H](CCCNC(=N)N)C(=O)N2` [Analogue 2] (cyclo(CTKSIPPHCWPDGR); disulfide 1-9), in assay [1], the inhibition at 10 µM stood at 0%. Moreover, at KLK5, the affinity, expressed as Kd, was 96 nM; the ΔG is -9.579 kcal/mol; the Ka stood at 1.0E7±1.8E6. In addition, at KLK5 (1xPBS pH 8.0, 25°C), the “Stoichiometry (N)” value is recorded as 1.01±0.01, the ΔH stood at 4.196 ± 0.065 kcal/mol and the ΔS is listed as 46.2 cal mol^-1 kelvin^-1. This compound displayed a half-inhibitory concentration (IC50) against KLK8 of 563 ± 14 nM.
As for `CC[C@H](C)[C@@H]1NC(=O)[C@H](CO)NC(=O)[C@H](CCCNC(=N)N)NC(=O)[C@H]([C@@H](C)O)NC(=O)[C@@H]2CSSC[C@H](NC(=O)[C@H](Cc3c[nH]cn3)NC(=O)[C@@H]3CCCN3C(=O)[C@@H]3CCCN3C1=O)C(=O)N[C@@H](Cc1c[nH]c3ccccc13)C(=O)N1CCC[C@H]1C(=O)N[C@@H](CC(=O)O)C(=O)NCC(=O)N[C@@H](CCCNC(=N)N)C(=O)N2` [Analogue 6] (cyclo(CTRSIPPHCWPDGR); disulfide 1-9), the inhibition at 10 µM in assay [1] was 0%. At KLK5, this compound yielded a dissociation constant (Kd) of 20 nM, a ΔG of -10.51 kcal/mol and a Ka of 5.0E7±1.2E7. The “increase in binding affinity for KLK5 from I10H” value at KLK5 (ITC Kd) is “around 25 times”. In addition, on KLK5 (1xPBS pH 8.0, 25°C), the “Stoichiometry (N)” value is 1.01±0.01, the ΔH is 2.014 ± 0.017 kcal/mol and the ΔS worked out at 42.0 cal mol^-1 kelvin^-1. Further, at KLK8, the IC50 came out at 373 ± 31 nM.
Turning to `CC[C@H](C)[C@@H]1NC(=O)[C@H](CO)NC(=O)[C@H](CCCCN)NC(=O)[C@H]([C@@H](C)O)NC(=O)[C@@H]2CSSC[C@H](NC(=O)[C@H](Cc3c[nH]cn3)NC(=O)[C@@H]3CCCN3C(=O)[C@@H]3CCCN3C1=O)C(=O)N[C@@H](Cc1ccccc1)C(=O)N1CCC[C@H]1C(=O)N[C@@H](CC(=O)O)C(=O)NCC(=O)N[C@@H](CCCNC(=N)N)C(=O)N2` [Analogue I10H] (cyclo(CFPDGRCTKSIPPH); disulfide 1-7), the inhibition at 10 µM in assay [1] (setting [2]) stood at 0%. In addition, the Kd at KLK5 (1xPBS pH 8.0, 25°C, read-out: ITC Kd) is 485 nM. Also, at KLK5 (1xPBS pH 8.0, 25°C), the “Stoichiometry (N)” value amounted to 1.06±0.02, the ΔH is 1.963 ± 0.051 kcal/mol and the ΔS was determined as 35.5 cal mol^-1 kelvin^-1. At KLK5, this compound came in with a ΔG of -8.621 kcal/mol and a Ka of 2.1E6±5.6E5. On KLK8 (setting [3]), the midpoint of inhibition, the IC50, lay at 1680 ± 51 nM.
`CC[C@H](C)[C@@H]1NC(=O)[C@@H]2CCCN2C(=O)[C@@H]2CCCN2C(=O)[C@H]([C@@H](C)CC)NC(=O)[C@H](CO)NC(=O)[C@H](CCCCN)NC(=O)[C@H]([C@@H](C)O)NC(=O)[C@@H]2CSSC[C@H](NC1=O)C(=O)N[C@@H](Cc1ccccc1)C(=O)N1CCC[C@H]1C(=O)N[C@@H](CC(=O)O)C(=O)NCC(=O)N[C@@H](CCCNC(=N)N)C(=O)N2` [Native SFTI, Sunflower Trypsin Inhibitor 1, reference compound]: the inhibition at 10 µM in assay [1] (setting [2]) turned out to be 0%. At KLK8 (setting [3]), the half-inhibitory concentration (IC50) worked out at 1290 ± 251 nM.
